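Briefly, cells in 96-well plates were exposed to five compound concentrations for 48 h, and endpoints were estimated by linear interpolation. At the GI50, growth is halved. TGI: concentration producing complete growth inhibition.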
Key:
Test in all cases: DTP human tumour cell line panel, 48 h
[1] = tested on: MCF7 breast
[2] = tested on: OVCAR-3 ovarian
[3] = tested on: HT29 colon
[4] = tested on: LOX IMVI melanoma
[5] = tested on: NCI-H460 lung
[6] = tested on: A549 NSCLC
[7] = tested on: HCT-15 colon
[8] = tested on: U251 CNS
[9] = tested on: SNB-19 CNS
[10] = tested on: IGROV1 ovarian
[11] = tested on: OVCAR-5 ovarian
[12] = tested on: CCRF-CEM leukemia
[13] = tested on: KM12 colon
[14] = tested on: NCI-H226 lung
[15] = tested on: UO-31 renal

| SMILES | TGI [1] [µM] | TGI [2] [µM] | TGI [3] [µM] | TGI [4] [µM] | TGI [5] [µM] | TGI [6] [µM] | TGI [7] [µM] | TGI [8] [µM] | TGI [9] [µM] | TGI [10] [µM] | TGI [11] [µM] | TGI [12] [µM] | TGI [13] [µM] | TGI [14] [µM] | TGI [15] [µM] | GI50 [5] [µM] | GI50 [6] [µM] | GI50 [9] [µM] | GI50 [12] [µM] | GI50 [14] [µM] |
| --- | --- | --- | --- | --- | --- | --- | --- | --- | --- | --- | --- | --- | --- | --- | --- | --- | --- | --- | --- | --- |
| C=C1C(=O)OC2CC(C)C3C4OC4C(O)C3(C)C(O)C12 (stereo not drawn) | 66.7 | 69.3 | 83.8 | 65.3 | 62.9 | 121 | 77.6 | 96.6 | 102 | 52.1 | 108 | 56 | 71.1 | > 68 | 149 | – | – | – | – | – |
| COc1ccc(-c2c(-c3ccccc3)c(C)nc3nc(SC)nc(SC)c23)cc1OC | > 100 | > 100 | > 100 | 33.2 | 16.2 | > 100 | > 100 | 28.3 | > 100 | > 100 | > 100 | 23.5 | > 100 | 82.9 | > 100 | – | – | – | – | – |
| CCCCOP(C)(=O)C(NC(=O)OCC)(C(F)(F)F)C(F)(F)F (stereo not drawn) | > 100 | > 100 | > 100 | > 100 | > 100 | > 100 | > 100 | > 100 | > 100 | > 100 | > 100 | > 100 | > 100 | > 100 | > 100 | – | – | – | – | – |
| CC12CCC(CC1)C(C)(C)O2 | 27.9 | 84.8 | 128 | 48.7 | 12.3 | 79.7 | 71.8 | 112 | 103 | 86.3 | 116 | 201 | 118 | 42.4 | 78.3 | 1.24 | 6.75 | 20.8 | 35.8 | 6.25 |
| CC(C)c1ccccc1SCc1cc(=O)cc(CSc2ccccc2C(C)C)o1 | 57.5 | 39.2 | 41.2 | 84.4 | 69.7 | > 100 | 94.3 | 86.8 | > 100 | 33.1 | 34.7 | 95.6 | 32.9 | 41.7 | > 100 | – | – | – | – | – |
| Cc1cccc(N2C(=O)C3c4[nH]c5ccc(C)cc5c4C4CCC(C(C)(C)C)CC4C3C2=O)c1 (stereo not drawn) | – | 28.9 | > 100 | 43.7 | 36.3 | 60.7 | > 100 | 62.3 | > 100 | > 100 | > 100 | 68 | 38 | 36.5 | > 100 | – | – | – | – | – |
| CSc1nc(N)c2c(-c3ccccc3)c3c(nc2n1)CCCC3 | > 100 | > 100 | > 100 | > 100 | > 100 | > 100 | > 100 | > 100 | > 100 | > 100 | > 100 | > 100 | > 100 | – | > 100 | – | – | – | – | – |

From PubChem BioAssay (NCI)
